Where two headings read alike, the source gives them in different places. Square brackets hold non-standard residues; d marks the D form. Peptide text beside a SMILES is read from it. Cit = NC(=O)NCCC[C@H](N)C(=O)O
Columns and labels:
[1] = biological target: T1, HLA-DRB1*01:01 (Homo sapiens, UniProt P01903+P01911, A100R/D57E/F55L/F60I/F76Y/I96L/L162R/M171V/P40L/Q125E/R42F/V115G/Y59C); assay: HLA class II peptide binding, inhibition of radiolabeled peptide binding to purified MHC
T1 construct: EBV transformed homozygous cell lines were used as sources of MHC molecules; endogenous in cells; host or cells: EBV transformed homozygous cell lines

[2] = biological target: T2, HLA-DRB1*04:01 (Homo sapiens, UniProt P01903+P01911, A100K/A169T/F76Y/I96L/K127E/L162R/M171V/N62H/P40V/Q125Y/R42H/S133A/S149N/S66Y/V115G/V209L/W38E); assay: as above
T2 construct: EBV transformed homozygous cell lines were used as sources of MHC molecules; endogenous in cells; host or cells: EBV transformed homozygous cell lines

[3] = citrullinated 15-mer peptide (X = citrulline), purified HLA-DRB1*01:01, read-out: DRB1*01:01 binding capacity, Cit peptide (IC50 nM)
[4] = citrullinated 15-mer peptide (X = citrulline), purified HLA-DRB1*04:01, read-out: DRB1*04:01 binding capacity, Cit peptide (IC50 nM)
[5] = ratio of WT IC50 to Cit IC50, >1 = citrullination increases binding
[6] = citrullinated 15-mer (X), purified MHC, inhibition of radiolabeled peptide binding, dash = IC50 >40,000 nM, read-out: DRB1*01:01 binding capacity, Cit peptide (IC50 nM)
[7] = citrullinated 15-mer (X), purified MHC, inhibition of radiolabeled peptide binding, dash = IC50 >40,000 nM, read-out: DRB1*04:01 binding capacity, Cit peptide (IC50 nM)
[8] = citrullinated peptide as listed (X at Cit position), read-out: DRB1*01:01 binding capacity Cit peptide (IC50 nM)
[9] = value of the wild-type (non-citrullinated) counterpart of the listed peptide, read-out: DRB1*01:01 binding capacity WT peptide (IC50 nM)
[10] = citrullinated peptide as listed (X at Cit position), read-out: DRB1*04:01 binding capacity Cit peptide (IC50 nM)

Compound: CC(C)C[C@H](NC(=O)CNC(=O)[C@@H]1CCCN1C(=O)[C@H](C)NC(=O)CNC(=O)[C@@H]1CCCN1C(=O)[C@H](CC(C)C)NC(=O)CN)C(=O)N[C@@H](CCCNC(N)=O)C(=O)NCC(=O)N[C@@H](CC(C)C)C(=O)N1CCC[C@H]1C(=O)NCC(=O)N[C@@H](CCCCN)C(=O)N[C@@H](CC(=O)O)C(=O)O [GLPGAPGLXGLPGKD] (H-GLPGAPGL[Cit]GLPGKD-OH)
- IC50 [1, 3]: 514 nM
- IC50 [2, 4]: > 40000 nM

Compound: CSCC[C@H](NC(=O)[C@@H](NC(=O)CNC(=O)[C@@H]1CCCN1C(=O)[C@H](CCC(N)=O)NC(=O)CNC(=O)[C@H](CCCNC(N)=O)NC(=O)[C@H](C)NC(=O)CNC(=O)[C@H](CCC(N)=O)NC(=O)[C@@H]1CCCN1C(=O)CN)C(C)C)C(=O)NCC(=O)N[C@@H](Cc1ccccc1)C(=O)N1CCC[C@H]1C(=O)O [GPQGAXGQPGVMGFP] (H-GPQGA[Cit]GQPGVMGFP-OH)
- IC50 [1, 3]: 64 nM
- IC50 [2, 4]: 14900 nM

Compound: N=C(N)NCCC[C@H](NC(=O)[C@H](CCC(=O)O)NC(=O)CNC(=O)[C@H](CCCNC(=N)N)NC(=O)[C@@H]1CCCN1C(=O)CN)C(=O)NCC(=O)N[C@@H](Cc1ccccc1)C(=O)N1CCC[C@H]1C(=O)NCC(=O)N[C@@H](CCC(=O)O)C(=O)N[C@@H](CCCNC(N)=O)C(=O)NCC(=O)N[C@@H](CO)C(=O)N1CCC[C@H]1C(=O)O [GPRGERGFPGEXGSP] (H-GPRGERGFPGE[Cit]GSP-OH)
- IC50 [1, 3]: 31100 nM
- IC50 [2, 4]: > 40000 nM

Compound: N=C(N)NCCC[C@H](NC(=O)[C@H](CCC(=O)O)NC(=O)CNC(=O)[C@@H]1CCCN1C(=O)[C@H](Cc1ccccc1)NC(=O)CNC(=O)[C@H](CCCNC(N)=O)NC(=O)[C@H](CCC(=O)O)NC(=O)CNC(=O)[C@H](CCCNC(=N)N)NC(=O)[C@@H]1CCCN1C(=O)CN)C(=O)NCC(=O)N[C@@H](CO)C(=O)N1CCC[C@H]1C(=O)O [GPRGEXGFPGERGSP] (H-GPRGE[Cit]GFPGERGSP-OH)
- IC50 [1, 3]: 18000 nM
- IC50 [2, 4]: > 40000 nM

Compound: C[C@H](NC(=O)CNC(=O)[C@H](CCCCN)NC(=O)[C@@H]1CCCN1C(=O)CNC(=O)[C@H](CC(=O)O)NC(=O)[C@H](CCCCN)NC(=O)CNC(=O)[C@H](CO)NC(=O)[C@@H]1CCCN1C(=O)CN)C(=O)N[C@@H](CCCNC(N)=O)C(=O)NCC(=O)N[C@@H](CC(=O)O)C(=O)N[C@@H](CO)C(=O)O [GPSGKDGPKGAXGDS] (H-GPSGKDGPKGA[Cit]GDS-OH; N-terminus and C-terminus assumed)
- IC50 [1, 3]: > 40000 nM
- DRB1*01:01 binding capacity, WT/cit ratio [1, 5]: 1.0
- IC50 [2, 4]: > 40000 nM
- DRB1*04:01 binding capacity, WT/cit ratio [2, 5]: 1.0

Compound: CC(C)[C@H](NC(=O)CNC(=O)[C@@H](NC(=O)[C@@H]1CCCN1C(=O)CN)[C@@H](C)O)C(=O)N[C@H](C(=O)NCC(=O)N1CCC[C@H]1C(=O)N[C@@H](CCCCN)C(=O)NCC(=O)N[C@@H](C)C(=O)N[C@@H](CCCNC(N)=O)C(=O)NCC(=O)N[C@@H](C)C(=O)N[C@@H](CCC(N)=O)C(=O)O)[C@@H](C)O [GPTGVTGPKGAXGAQ] (H-GPTGVTGPKGA[Cit]GAQ-OH)
- IC50 [1, 3]: 569 nM
- IC50 [2, 4]: > 40000 nM

Compound: N=C(N)NCCC[C@H](NC(=O)[C@H](CCC(=O)O)NC(=O)CNC(=O)[C@H](CCCNC(N)=O)NC(=O)[C@@H]1CCCN1C(=O)CN)C(=O)NCC(=O)N[C@@H](Cc1ccccc1)C(=O)N1CCC[C@H]1C(=O)NCC(=O)N[C@@H](CCC(=O)O)C(=O)N[C@@H](CCCNC(=N)N)C(=O)NCC(=O)N[C@@H](CO)C(=O)N1CCC[C@H]1C(=O)O [GPXGERGFPGERGSP] (H-GP[Cit]GERGFPGERGSP-OH)
- IC50 [1, 3]: 23400 nM
- IC50 [2, 4]: > 40000 nM

Compound: CC(C)C[C@H](NC(=O)[C@H](C)NC(=O)[C@H](CO)NC(=O)CN)C(=O)N[C@@H](CCCNC(=N)N)C(=O)N1CCC[C@H]1C(=O)N[C@@H](CO)C(=O)N[C@H](C(=O)N[C@@H](CO)C(=O)N[C@@H](CCCNC(N)=O)C(=O)N[C@@H](CO)C(=O)N[C@@H](CC(C)C)C(=O)N[C@@H](Cc1ccc(O)cc1)C(=O)N[C@@H](C)C(=O)N[C@@H](CO)C(=O)O)[C@@H](C)O [GSALRPSTSXSLYAS]
- IC50 [1, 6]: 25 nM
- IC50 [2, 7]: 803 nM

Compound: CC(C)C[C@H](NC(=O)[C@H](C)NC(=O)[C@H](CO)NC(=O)CN)C(=O)N[C@@H](CCCNC(N)=O)C(=O)N1CCC[C@H]1C(=O)N[C@@H](CO)C(=O)N[C@H](C(=O)N[C@@H](CO)C(=O)N[C@@H](CCCNC(=N)N)C(=O)N[C@@H](CO)C(=O)N[C@@H](CC(C)C)C(=O)N[C@@H](Cc1ccc(O)cc1)C(=O)N[C@@H](C)C(=O)N[C@@H](CO)C(=O)O)[C@@H](C)O [GSALXPSTSRSLYAS]
- IC50 [1, 6]: 12 nM
- IC50 [2, 7]: 1550 nM

Compound: CC(C)C[C@H](NC(=O)[C@H](CO)NC(=O)[C@H](Cc1ccccc1)NC(=O)[C@H](CC(=O)O)NC(=O)[C@@H](NC(=O)[C@H](CO)NC(=O)[C@H](CC(=O)O)NC(=O)[C@H](CCC(N)=O)NC(=O)[C@H](CC(C)C)NC(=O)[C@H](CC(C)C)NC(=O)[C@H](CCCNC(N)=O)NC(=O)[C@@H](NC(=O)CN)C(C)C)C(C)C)C(=O)N[C@@H](C)C(=O)N[C@@H](CC(=O)O)C(=O)O [GVXLLQDSVDFSLAD]
- IC50 [1, 6]: 541 nM
- IC50 [2, 7]: 918 nM

Compound: CC[C@H](C)[C@H](N)C(=O)N[C@@H](CC(=O)O)C(=O)N[C@H](C(=O)N[C@@H](CC(=O)O)C(=O)N[C@H](C(=O)N[C@@H](CO)C(=O)N[C@@H](CCCCN)C(=O)N1CCC[C@H]1C(=O)N[C@@H](CC(=O)O)C(=O)N[C@@H](CC(C)C)C(=O)N[C@H](C(=O)N[C@@H](C)C(=O)N[C@@H](C)C(=O)N[C@@H](CC(C)C)C(=O)N[C@@H](CCCNC(N)=O)C(=O)O)[C@@H](C)O)C(C)C)C(C)C [IDVDVSKPDLTAALX] (H-IDVDVSKPDLTAAL[Cit]-OH)
- IC50 [1, 6]: 935 nM
- IC50 [2, 7]: 23500 nM

Compound: CC[C@H](C)[C@H](N)C(=O)N[C@@H](CCCNC(=N)N)C(=O)N[C@@H](C)C(=O)N[C@@H](CCC(=O)O)C(=O)NCC(=O)N[C@@H](CC(N)=O)C(=O)N[C@@H](CO)C(=O)N[C@@H](CCCNC(N)=O)C(=O)N[C@@H](Cc1ccccc1)C(=O)N[C@H](C(=O)N[C@@H](Cc1ccc(O)cc1)C(=O)N[C@H](C(=O)N[C@@H](C)C(=O)N[C@@H](CC(C)C)C(=O)N[C@@H](CCCCN)C(=O)O)[C@@H](C)O)[C@@H](C)O [IRAEGNSXFTYTALK] (H-IRAEGNS[Cit]FTYTALK-OH)
- IC50 [1, 8]: 0.6 nM
- IC50 [1, 9]: 1.3 nM
- IC50 [2, 10]: 849 nM

Compound: CC[C@H](C)[C@H](N)C(=O)N[C@@H](CO)C(=O)N[C@@H](CC(C)C)C(=O)N1CCC[C@H]1C(=O)N[C@@H](CC(C)C)C(=O)N1CCC[C@H]1C(=O)N[C@@H](CC(N)=O)C(=O)N[C@@H](Cc1ccccc1)C(=O)N[C@@H](CO)C(=O)N[C@@H](CO)C(=O)N[C@@H](CC(C)C)C(=O)N[C@@H](CC(N)=O)C(=O)N[C@@H](CC(C)C)C(=O)N[C@@H](CCCNC(N)=O)C(=O)N[C@@H](CCC(=O)O)C(=O)O [ISLPLPNFSSLNLXE]
- IC50 [1, 3]: 309 nM
- IC50 [2, 4]: 4480 nM

Compound: CC[C@H](C)[C@H](N)C(=O)N[C@@H](CCCNC(N)=O)C(=O)N[C@@H](C)C(=O)N[C@@H](CCC(=O)O)C(=O)NCC(=O)N[C@@H](CC(N)=O)C(=O)N[C@@H](CO)C(=O)N[C@@H](CCCNC(=N)N)C(=O)N[C@@H](Cc1ccccc1)C(=O)N[C@H](C(=O)N[C@@H](Cc1ccc(O)cc1)C(=O)N[C@H](C(=O)N[C@@H](C)C(=O)N[C@@H](CC(C)C)C(=O)N[C@@H](CCCCN)C(=O)O)[C@@H](C)O)[C@@H](C)O [IXAEGNSRFTYTALK] (H-I[Cit]AEGNSRFTYTALK-OH)
- IC50 [1, 8]: 0.62 nM
- IC50 [1, 9]: 1.3 nM
- IC50 [2, 10]: 2310 nM
- IC50 ([2]; value of the wild-type (non-citrullinated) counterpart of the listed peptide, read-out: DRB1*04:01 binding capacity WT peptide (IC50 nM)): 794 nM

From publication PMC5421785, “Citrullination only infrequently impacts peptide binding to HLA class II MHC” (PLoS ONE, 2017)
